From the NIST ThermoML archive (doi:10.1016/j.jct.2017.03.029)
“And” between values parts separate entries of the source, which are not always exact repeats. Equal values may be shown once. ± gives the expanded uncertainty stated by the source.

Conditions: Transpiration method

Cc1cccc([N+](=O)[O-])c1 [3-nitrotoluene]
Liquid
Conditions | vapor or sublimation pressure
290.6 K | 0.00648 ± 0.00047 kPa
293.3 K | 0.00842 ± 0.00058 kPa
296.3 K | 0.0103 ± 0.0007 kPa
298.2 K | 0.012 ± 0.001 kPa
299.2 K | 0.0127 ± 0.0008 kPa and 0.0133 ± 0.001 kPa
302.2 K | 0.0163 ± 0.001 kPa
302.3 K | 0.0168 ± 0.001 kPa
303.2 K | 0.0176 ± 0.0012 kPa and 0.0173 ± 0.0012 kPa
305.3 K | 0.0211 ± 0.0015 kPa
308.2 K | 0.0259 ± 0.0017 kPa [middle of 4 runs]
308.3 K | 0.0267 ± 0.0017 kPa
311.4 K | 0.0335 ± 0.0022 kPa
313.2 K | 0.037 ± 0.0023 kPa and 0.0363 ± 0.0023 kPa and 0.0361 ± 0.0023 kPa
314.3 K | 0.0414 ± 0.0027 kPa
317.2 K | 0.0498 ± 0.0032 kPa
318.1 K | 0.0516 ± 0.0033 kPa
318.2 K | 0.0535 ± 0.0035 kPa and 0.0524 ± 0.0033 kPa
320.2 K | 0.0607 ± 0.0038 kPa
323.1 K | 0.0743 ± 0.0047 kPa and 0.0718 ± 0.0045 kPa
323.2 K | 0.0732 ± 0.0047 kPa and 0.0749 ± 0.0048 kPa
328.1 K | 0.103 ± 0.007 kPa
333.1 K | 0.138 ± 0.008 kPa
338 K | 0.187 ± 0.012 kPa

Cc1ccc([N+](=O)[O-])cc1 [1-methyl-4-nitrobenzene]
Conditions | vapor or sublimation pressure
278.2 K, Crystal | 0.00067 ± 0.00014 kPa
279.6 K, Crystal | 0.0008 ± 0.00014 kPa
283.3 K, Crystal | 0.00113 ± 8e-05 kPa
288.2 K, Crystal | 0.00211 ± 0.00022 kPa
288.3 K, Crystal | 0.00196 ± 0.00013 kPa
290.3 K, Crystal | 0.00271 ± 0.00027 kPa
292.2 K, Crystal | 0.00326 ± 0.00029 kPa
293.2 K, Crystal | 0.00332 ± 0.00024 kPa
296.8 K, Crystal | 0.00539 ± 0.00042 kPa
298.2 K, Crystal | 0.00566 ± 0.00042 kPa
298.3 K, Crystal | 0.00599 ± 0.00047 kPa
301.4 K, Crystal | 0.00833 ± 0.00056 kPa
303.2 K, Crystal | 0.00937 ± 0.00064 kPa
304.3 K, Crystal | 0.011 ± 0.0008 kPa
307.4 K, Crystal | 0.015 ± 0.001 kPa
308.2 K, Crystal | 0.0151 ± 0.001 kPa and 0.0149 ± 0.001 kPa
310.3 K, Crystal | 0.0193 ± 0.0013 kPa
313.2 K, Crystal | 0.0252 ± 0.0017 kPa and 0.0239 ± 0.0015 kPa
314.3 K, Crystal | 0.0292 ± 0.002 kPa
315.2 K, Crystal | 0.0309 ± 0.002 kPa
315.7 K, Crystal | 0.033 ± 0.0022 kPa
316.2 K, Crystal | 0.0354 ± 0.0023 kPa
316.7 K, Crystal | 0.0359 ± 0.0023 kPa
317.2 K, Crystal | 0.0383 ± 0.0024 kPa
318.2 K, Crystal | 0.04 ± 0.0025 kPa and 0.0377 ± 0.0025 kPa
319.3 K, Crystal | 0.0438 ± 0.0029 kPa
320.3 K, Crystal | 0.0483 ± 0.0031 kPa
321.2 K, Crystal | 0.0523 ± 0.0033 kPa
322.2 K, Crystal | 0.0569 ± 0.0035 kPa
323.1 K, Crystal | 0.0544 ± 0.0036 kPa and 0.0572 ± 0.0038 kPa
323.3 K, Crystal | 0.0626 ± 0.004 kPa
324.3 K, Crystal | 0.0673 ± 0.0043 kPa
326.2 K, Liquid | 0.0797 ± 0.0049 kPa
328.1 K, Liquid | 0.0862 ± 0.0055 kPa and 0.0853 ± 0.0054 kPa
329.2 K, Liquid | 0.097 ± 0.0061 kPa
332.2 K, Liquid | 0.1207 ± 0.0075 kPa and 0.1198 ± 0.0074 kPa
333 K, Liquid | 0.117 ± 0.007 kPa and 0.113 ± 0.007 kPa
335.3 K, Liquid | 0.1411 ± 0.0089 kPa
338 K, Liquid | 0.162 ± 0.01 kPa and 0.155 ± 0.01 kPa
338.2 K, Liquid | 0.168 ± 0.011 kPa
341.2 K, Liquid | 0.1995 ± 0.012 kPa
343 K, Liquid | 0.216 ± 0.013 kPa and 0.21 ± 0.013 kPa
344.4 K, Liquid | 0.2417 ± 0.015 kPa
347.1 K, Liquid | 0.2802 ± 0.017 kPa
347.9 K, Liquid | 0.274 ± 0.018 kPa
348 K, Liquid | 0.29 ± 0.018 kPa
350.2 K, Liquid | 0.3388 ± 0.021 kPa
352.9 K, Liquid | 0.369 ± 0.031 kPa
353 K, Liquid | 0.374 ± 0.023 kPa
353.2 K, Liquid | 0.4024 ± 0.033 kPa
357.9 K, Liquid | 0.483 ± 0.03 kPa
358 K, Liquid | 0.504 ± 0.032 kPa
362.9 K, Liquid | 0.622 ± 0.039 kPa
363 K, Liquid | 0.66 ± 0.042 kPa
367.9 K, Liquid | 0.841 ± 0.052 kPa and 0.793 ± 0.049 kPa

Cc1ccccc1[N+](=O)[O-] [2-nitrotoluene]
Liquid
Conditions | vapor or sublimation pressure
278.3 K | 0.00328 ± 0.00023 kPa
278.4 K | 0.0032 ± 0.00023 kPa
283.3 K | 0.00526 ± 0.00038 kPa and 0.00502 ± 0.00036 kPa
288.3 K | 0.00806 ± 0.00056 kPa and 0.00804 ± 0.00056 kPa
293.2 K | 0.0124 ± 0.0008 kPa and 0.0119 ± 0.0008 kPa
298.2 K | 0.0181 ± 0.0012 kPa and 0.0175 ± 0.0012 kPa
303.1 K | 0.0259 ± 0.0017 kPa
303.2 K | 0.0273 ± 0.0017 kPa
308.1 K | 0.0381 ± 0.0025 kPa
308.2 K | 0.0391 ± 0.0025 kPa
313.1 K | 0.0563 ± 0.0035 kPa and 0.0555 ± 0.0035 kPa
318 K | 0.0765 ± 0.0048 kPa
318.1 K | 0.081 ± 0.005 kPa
323 K | 0.108 ± 0.007 kPa
